Measured values from PMC6450673, “Targeted degradation of aberrant tau in frontotemporal dementia patient-derived neuronal cell models” (eLife, 2019).

Experiments:
[1] = molecular target: T1, recombinant human tau Tau-441(WT) (Homo sapiens, UniProt P10636); experiment: Bio-layer interferometry (BLI) biosensor assay, tau WT; type: binding; conditions: BLI steady-state analysis, immobilized biotinylated tau; Figure 1—figure supplement 1B
T1 construct: biotin (chemical label, NHS-PEG4); purchased SignalChem T08-54BN; host or cells: E. coli
T1 sequence (P10636 1-441 isoform P10636-8): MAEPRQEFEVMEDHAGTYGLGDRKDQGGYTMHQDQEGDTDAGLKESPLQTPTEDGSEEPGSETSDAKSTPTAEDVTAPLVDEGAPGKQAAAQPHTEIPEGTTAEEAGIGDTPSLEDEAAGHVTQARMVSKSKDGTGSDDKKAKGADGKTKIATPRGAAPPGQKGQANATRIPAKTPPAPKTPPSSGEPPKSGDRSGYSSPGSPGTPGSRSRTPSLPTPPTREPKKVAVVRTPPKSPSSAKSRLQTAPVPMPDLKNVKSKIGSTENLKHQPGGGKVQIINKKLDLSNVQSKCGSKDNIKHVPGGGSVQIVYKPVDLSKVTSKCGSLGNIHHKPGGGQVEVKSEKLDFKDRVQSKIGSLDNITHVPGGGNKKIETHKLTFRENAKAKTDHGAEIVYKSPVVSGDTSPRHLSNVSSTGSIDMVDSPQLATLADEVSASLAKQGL
Description: (§1) BLI was performed in the Octet Red384 instrument (ForteBio, Fremont CA, USA) with 1X PBS and 0.01% Brij-35 as the assay buffer. […] The biotinylated protein samples for BLI were purified in 1X phosphate buffered saline (PBS). Streptavidin (SA) sensors were used to measure the biophysical interaction between the small molecules and biotinylated tau. Prior to the initiation of BLI, the SA sensors were soaked by dipping in 200 μL of assay buffer in a 96-well Greiner Bio-One Black flat bottom plate (Greiner, Monroe NC, USA Cat.655209). The assay was performed in 80 μL volume in Greiner Bio-One 384-well black flat bottom PP plates (Greiner, Cat.781209) with an initial baseline step, followed by loading of 250 nM biotinylated tau protein. The small molecules samples and recombinant proteins were arranged in the 384-well plate according to a plate map recommended for the eight-channel mode kinetic analysis, where the sensors move from low to high concentration of small molecule samples. Subsequent steps included a second baseline (120 s), followed by association (240 s) and dissociation (240 s) cycles. […] When Req option is selected, Fortebio’s software calculates affinity constants based on the Req values determined from the curve fits. […]

[2] = molecular target: T2, recombinant human tau Tau-441(A152T) (Homo sapiens, UniProt P10636, A469T); experiment: Bio-layer interferometry (BLI) biosensor assay, tau A152T; type: binding; conditions: BLI steady-state analysis, immobilized biotinylated tau; Figure 1—figure supplement 1B; read-out: KD, Tau A152T
T2 construct: biotin (chemical label, NHS-PEG4); purchased SignalChem T08-56VN; host or cells: E. coli
T2 sequence (P10636 1-441 isoform P10636-8 A152T): as the sequence (P10636 1-441 isoform P10636-8) above, with A152T counted along it
Description: BLI was performed in the Octet Red384 instrument (ForteBio, Fremont CA, USA) with 1X PBS and 0.01% Brij-35 as the assay buffer. […] The biotinylated protein samples for BLI were purified in 1X phosphate buffered saline (PBS). Streptavidin (SA) sensors were used to measure the biophysical interaction between the small molecules and biotinylated tau. Prior to the initiation of BLI, the SA sensors were soaked by dipping in 200 μL of assay buffer in a 96-well Greiner Bio-One Black flat bottom plate (Greiner, Monroe NC, USA Cat.655209). The assay was performed in 80 μL volume in Greiner Bio-One 384-well black flat bottom PP plates (Greiner, Cat.781209) with an initial baseline step, followed by loading of 250 nM biotinylated tau protein. The small molecules samples and recombinant proteins were arranged in the 384-well plate according to a plate map recommended for the eight-channel mode kinetic analysis, where the sensors move from low to high concentration of small molecule samples. Subsequent steps included a second baseline (120 s), followed by association (240 s) and dissociation (240 s) cycles. […] Data analysis was performed using Data Acquisition HT 11.0 software following reference subtraction (an average of two sensors with DMSO) using a 1:1 binding model and an individual fit of each replicate. The equilibrium dissociation constant (KD) was estimated using data at equilibrium from each available small molecule concentration with steady-state analysis. The instrument manufacturer (Fortebio, article #137) recommends the steady state option for analyzing interactions that are either low affinity or very fast on-and-off affinity rates. […] When Req option is selected, Fortebio’s software calculates affinity constants based on the Req values determined from the curve fits. In the steady-state analysis, Req is plotted against the small molecule concentration to infer the Rmax. […] As per the instrument manufacturer’s instructions, if all curves have reached equilibrium, these two sets of values correspond to ‘Response,’ and Req values should match. […]

[3] = molecular target: T3, recombinant human tau Tau-441(P301L) (Homo sapiens, UniProt P10636, P618L); experiment: Bio-layer interferometry (BLI) biosensor assay, tau P301L; type: binding; conditions: BLI steady-state analysis, immobilized biotinylated tau; Figure 1—figure supplement 1B
T3 construct: biotin (chemical label, NHS-PEG4); purchased SignalChem T08-56FN; host or cells: E. coli
T3 sequence (P10636 1-441 isoform P10636-8 P301L): as the sequence (P10636 1-441 isoform P10636-8) above, with P301L counted along it
Description: as §1

[4] = system: total tau (TAU5) in A152T neurons; experiment: Western blot of total tau in A152T neurons; type: cell-based, human; conditions: pre-treatment 6 hr then 1 μM QC-01–175 for 18 hr, western blot
Text: (§2) Cells from individuals carrying the tau risk variant A152T (c.1407G > A; NCBI RefSeq NM_001123066, rs143624519), the autosomal dominant mutation P301L (c.C1907T; NCBI NM_001123066, rs63751273), or age-matched non-mutant WT tau were employed in this study (Figure 2—source data 1). Dermal fibroblasts from the tau-P301L carrier and the healthy individual were generated from a skin biopsy from subjects within the MGH Frontotemporal Disorders Unit as part of the MGH Neurodegeneration Repository. Approval for human subjects’ work was obtained under a Partners/MGH-approved IRB Protocol (#2010P001611/MGH). Fibroblasts were reprogrammed into iPSCs, which were subsequently converted into cortical-enriched neural progenitor cells (NPCs) and differentiated into neuronal cells as previously described ([Almeida et al., 2012]; [Seo et al., 2017]; [Silva et al., 2016]; [Sheridan et al., 2011]) (Silva MC, Manuscript in preparation, 2019). Briefly, cells were cultured in 6-well (Fisher Scientific Corning, Pittsburgh, PA) or 96-well (Fisher Scientific Corning) plates coated with poly-ornithine (20 μg/mL in water, Sigma, St. Louis, MO) and laminin (5 μg/mL in PBS, Sigma) (POL-coated), in DMEM/F12-B27 media [70% DMEM (Gibco, Carlsbad, CA), 30% Ham’s-F12 (Fisher Scientific Corning), 2% B27 (Gibco), 1% penicillin-streptomycin (Gibco)]. Media was supplemented with EGF (20 ng/mL, Sigma), FGF (20 ng/mL, Stemgent, Cambridge, MA) and heparin (5 μg/mL, Sigma), to promote NPC proliferation and expansion. The growth factors were withdrawn to promote neural differentiation for 6 to 8 weeks, with half media change two times per week. Cell lines’ identity was authenticated by SANGER sequencing, karyotyping and ACGH analysis at different stages of culture maintenance from iPSC to NPC. All working cell lines tested negative for mycoplasma contamination.
(§3) Compound treatment in six-well plates was performed in 2 mL media volume by removing 1 mL of conditioned media from the culture and adding 1 mL of new media pre-mixed with the compound at the appropriate 2X concentration, followed by incubation at 37°C for the designated period of time. Compound treatment in 96-well plates was performed in 100 μL media volume by adding compound directly to each well, followed by incubation at 37°C. When testing the effect of drug pre-treatment, the first compound was added as described above for the period of time needed, and then QC-01–175 was added directly onto the media without media exchange.
(§4) Neurons differentiated in six-well plates for 6 weeks were washed and collected in PBS, lysed in RIPA buffer (Boston Bio-Products, Boston, MA) supplemented with 2% SDS (Sigma), protease inhibitors cocktail (Roche Complete Mini tablets, Mannheim, Germany), and phosphatase inhibitors cocktail (Sigma), followed by water sonication (Bransonic Ultrasonic Baths, Thomas Scientific, Danbury, CT) and 20,000 g centrifugation for 20 min. Supernatants were transferred to new tubes and total protein concentration was quantified with the Pierce BCA Protein Assay Kit (ThermoFisher Scientific, Carlsbad, CA). Human recombinant tau protein ladder was purchased from Sigma. Electrophoresis were performed with the Novex NuPAGE SDS-PAGE Gel System (Invitrogen, Carlsbad, CA), by running 10 μg of total protein (pre-boiled in SDS-DTT loading buffer, NEB, Ipswich, MA) on pre-cast SDS-PAGE. Gels were transferred onto PVDF membranes (EMD Millipore) using standard procedures. Membranes were blocked in 5% BSA (Sigma) in Tris-buffered saline with Tween-20 (TBST/Biorad, Hercules, CA) for 2 hr, incubated overnight with primary antibody (see antibody section) at 4°C, followed by corresponding HRP-linked secondary antibody incubation (Cell Signaling Technology, Danvers, MA). […]

monoamine oxidase (MAO) = experiment: Monoamine oxidase (MAO-Glo) activity assay; type: biochemical; conditions: four parameter fit; for IC50: 60-min reaction, read-out: MAO Dose Response IC50
Description: The Monoamine oxidase (MAO) activity measurements were performed using a MAO-Glo assay kit (Promega, Madison, WI), in a 384-well plate (Proxiplate 384 Plus, Perkin Elmer, Waltham, MA) with the miniaturization of final assay volume to 20 µL, as per the manufacturer’s instructions. In brief, MAO reactions were terminated after a 60-min enzymatic reaction, by the addition of reconstituted Luciferin Detection Reagent. Following a 20-min incubation with the detection reagent, the luminescence was measured using a multi-label plate reader (Envision, Perkin Elmer). IC50 values were estimated by fitting percentage inhibition vs. compound concentration in a variable slope (four parameter) fit.

[5] = system: P-tau S396 in A152T neurons; experiment: Western blot of P-tau S396 in A152T neurons; type: cell-based, human; conditions: 24 hr, across biological replicates
Text: as §2, §3, §4

COc1cc(OCc2ccccn2)ccc1/C=C/c1cc(/C=C/c2ccc3cc[nH]c3c2)n[nH]1 [PE859, reference compound]
Kd [1]: 22 ± 2.78 µM | Kd [2]: 22.1 ± 3.26 µM | Kd [3]: 8.8 ± 1.11 µM

NS(=O)(=O)OC[C@@H]1C[C@@H](n2ccc3c(N[C@H]4CCc5ccccc54)ncnc32)C[C@@H]1O [MLN4924, reference compound]
effect of 6 hr pre-treatment on QC-01–175-mediated tau degradation (total tau and P-tau S396) [4]: caused a concentration-dependent rescue of the effect of QC-01–175

CO/C1=C\C(C)=C\[C@@H](C)[C@@H](O)[C@@H](C)C/C(C)=C/C=C/[C@H](OC)[C@@H]([C@@H](C)[C@@H](O)[C@H](C)[C@@]2(O)C[C@@H](O)[C@H](C)[C@@H](C(C)C)O2)OC1=O [bafilomycin A1, Bafilomycin A1, reference compound]
effect of 6 hr pre-treatment on QC-01–175-mediated tau degradation (total tau and P-tau S396) [4]: did not reverse the degrader effect and further promoted tau clearance

Nc1cccc2c1C(=O)N(C1CCC(=O)NC1=O)C2=O (centres unmarked) [Pomalidomide]
IC50 (monoamine oxidase (MAO)): > 50 µM | MAO Dose Response Hill Slope (monoamine oxidase (MAO)): 0.108

Nc1cccc2c1CN(C1CCC(=O)NC1=O)C2=O (centres unmarked) [lenalidomide, Lenalidomide, reference compound]
up-regulation of P-tau S396 ([5]; 1 μM): ~ 30% | up-regulation of P-tau S396 ([5]; 10 μM): ~90% | effect of 6 hr pre-treatment on QC-01–175-mediated tau degradation (total tau and P-tau S396) [4]: reversed QC-01–175-mediated tau degradation in a concentration-dependent manner

CC(C)C[C@H](NC(=O)[C@H](CCc1ccccc1)NC(=O)CN1CCOCC1)C(=O)N[C@@H](Cc1ccccc1)C(=O)N[C@@H](CC(C)C)C(=O)[C@@]1(C)CO1 [carfilzomib, Carfilzomib, reference compound]
effect of 6 hr pre-treatment on QC-01–175-mediated tau degradation (total tau and P-tau S396) [4]: caused a concentration-dependent rescue of the effect of QC-01–175

N[C@@H]1C[C@H]1c1ccccc1 (racemic) [Parnate, Tranylcypromine]
IC50 (monoamine oxidase (MAO)): 0.057 µM | MAO Dose Response Hill Slope (monoamine oxidase (MAO)): 1.504 | MAO Dose Response Log IC50 (monoamine oxidase (MAO)): -1.240
